Reference: PubChem BioAssay (NCI)
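Growth conditions: 96-well plates. Treatment: test compound, 48 hours, 5 concentrations. Analysis: linear interpolation between bracketing concentrations; unreached endpoints set to highest concentration. GI50 is the concentration that inhibits growth by half. TGI: total growth inhibition.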

Assays:
Assay in all cases: NCI anticancer screen, dose series, 48 h
EKVX NSCLC = tested on: EKVX NSCLC
HCT-15 colon = tested on: HCT-15 colon
HT29 colon = tested on: HT29 colon
M14 melanoma = tested on: M14 melanoma
MOLT-4 leukemia = tested on: MOLT-4 leukemia
SN12C renal = tested on: SN12C renal
SW-620 colon = tested on: SW-620 colon
UACC-257 melanoma = tested on: UACC-257 melanoma
UACC-62 melanoma = tested on: UACC-62 melanoma
MDA-N = tested on: MDA-N

Structure (SMILES)	TGI (EKVX NSCLC) [µM]	TGI (HCT-15 colon) [µM]	TGI (HT29 colon) [µM]	TGI (M14 melanoma) [µM]	TGI (MOLT-4 leukemia) [µM]	TGI (SN12C renal) [µM]	TGI (SW-620 colon) [µM]	TGI (UACC-257 melanoma) [µM]	TGI (UACC-62 melanoma) [µM]	TGI (MDA-N) [µM]	GI50 (EKVX NSCLC) [µM]	GI50 (HCT-15 colon) [µM]	GI50 (HT29 colon) [µM]	GI50 (M14 melanoma) [µM]	GI50 (MOLT-4 leukemia) [µM]	GI50 (SN12C renal) [µM]	GI50 (SW-620 colon) [µM]	GI50 (UACC-257 melanoma) [µM]	GI50 (UACC-62 melanoma) [µM]
CC(C)=CCC[C@@H](C)c1c2[nH]c3ccccc3sc-2c(C)c(=O)c1=O	> 75	> 75	> 27.4	48.5	> 75	67.2	> 75	> 75	68.6										
Nc1ncc(/C=N/O)c(NCC2(CO)CC(CCc3ccccc3)C2)n1 (stereo unspecified)		29.9	9.07		23	33		24.4	33.1										
COC(=O)n1c(C[P+](c2ccccc2)(c2ccccc2)c2ccccc2)cc2ccccc21	11.1	34.2	11.8	7.37	17.8	11.7	13.1		16.3										
C=C1CC(Cn2cc(Br)c(=O)[nH]c2=O)(c2ccc(-c3ccccc3)cc2)OC1=O (stereo unspecified)	7.42	3.8	1.91	3.12		4.67	1.58	2.53	2.45	2.35									
CC(=O)CC1(C)OC(N)=C(C#N)C1(C#N)C#N (stereo unspecified)	> 100	> 100	> 100	> 100		> 100	> 100	> 100	> 100	> 100									
C=C[C@@](C)(/C=C/c1ccc(O)cc1)CCC=C(C)C		32.7	32.8	35.3	28	35.3	34	31.9		31									
Cc1cc(=O)[nH]c(NNC(C#N)c2ccc([N+](=O)[O-])cc2)n1 (stereo unspecified)		> 100	> 100	> 100	> 100	> 100	> 100	> 100	> 100										
CC(=O)NC1=C(NCC(C)C)C(=O)c2ccccc2C1=O	59.9	33.7	> 100	33.2	> 100	31.2	33.1	36.4	34.7										
COC(=O)/C=C/c1ccc2c(c1)CC1(Cc3ccccc3C1)C2	> 100	> 100	> 100	> 100	> 100	> 100		> 100	> 100	> 100									
CC1(C)COC(c2c(-c3ccccc3)noc2CS(=O)c2ccccc2)=N1 (stereo unspecified)	> 100	> 100	> 100	> 100	> 100	> 100	> 100	> 100	76.9										
COc1cc(-n2cc(-c3cc(O)c(C/C=C(\C)CCC=C(C)C)c(O)c3)nn2)cc2c1O[C@]1(C)CC[C@@H](O)C(C)(C)[C@H]1C2	44.1	9.7	5.81	31	1.36	> 41.4	10.7	48.4	2.98		2.28	1.08	1.71	0.787	0.0671	3.86	0.726	5.09	0.23
COC(=O)CC(NC(=O)OCc1ccccc1)C(C(=O)OCc1ccccc1)C1(C)OCCO1 (stereo unspecified)	> 100	> 100	> 100	> 100	57.3	> 100	> 100	> 100	59.7										
CC12CC(C/C1=N/O)C(C)(C)C2 (stereo unspecified)	> 100		> 100	> 100		> 100	> 100	> 100	> 100	> 100									
CCCCCCOc1ccc(C(=N)N(CCCC)CCCC)c2ccccc12							3	3.06	3.23								1.52	1.6	1.6
O=CNNC(=O)Nc1ccc(Cl)cc1	> 100	> 100	> 100	> 100	> 100	> 100	> 100	> 100	> 100										
C/C(=C\Cc1cc(O)ccc1O)CCc1c(C)cc(O)c(C=O)c1C	> 100	84.5	48.6	63.1	> 100	92.4	> 100												
